IC50 data for 74 molecules are collected here from PubChem BioAssay AID504685 (Sanford-Burnham Center for Chemical Genomics, 2011).

pIC50: −log10 of the molar value. Active and inactive are the calls of the source. The rule behind the calls is not given here.

The target in the assay is Bcl-2-related protein A1 (Mus musculus) (UniProt Q07440). Briefly: off-target activity on mouse Bfl-1 – biochemical, counter-screen for UBC13 polyubiquitination inhibitor project, SAR follow-up (AID 504685). To be noted: Bfl-1 counterscreen for UBC13 inhibitors.
In general, IC50 refers to the concentration that inhibits the measured activity by half. In the case of `CC(NC(=O)CCCCCN1C(=O)c2ccccc2C1=O)c1nc(-c2ccccc2)no1` (centres undefined), the IC50 is > 100 µM (inactive).
The same measure, in the same setting: the same measure for `Cc1ccc(-c2oc3ncnc(N)c3c2-c2ccc(C)cc2)cc1`: > 100 µM (inactive); for `O=C(c1ccco1)N1CCN(C(=O)C2CCN(c3ncnc4c3nc3n4CCCCC3)CC2)CC1`: > 100 µM (inactive); for `O=C1c2cccc3cccc(c23)C(=O)N1CCN1CCN(CC(O)COc2ccc(Cl)cc2)CC1` (centres undefined): > 100 µM (inactive).
Still for that read-out and setting: the same measure for `O=C(NCC1CCN(Cc2ccc(Cl)cc2)CC1)C1CCCN(c2ncnc3c2nc2n3CCCCC2)C1` (centres undefined): > 100 µM (inactive).
As to `O=C(C1CCN(c2ncnc3c2nc2n3CCCCC2)CC1)N1CCN(c2ccccn2)CC1`, the IC50 is > 100 µM (inactive).
As to `CN1CCN(CCCNC(=O)c2ccc(/C=C3\Oc4ccccc4N(Cc4ccc(Cl)cc4)C3=O)cc2)CC1`, the IC50 is > 100 µM (inactive).
On to `Cc1cc(NS(=O)(=O)c2ccc(NC(=O)CCCCCN3C(=O)c4ccccc4C3=O)cc2)nc(C)n1`, for which the IC50 is > 100 µM (inactive).
Take `O=C(CCCn1c(=O)c2ccccc2n(Cc2ccccc2F)c1=O)NC1CCN(Cc2ccccc2)CC1`: the IC50 is > 100 µM (inactive).
Regarding `Cc1ccc2nc(N(CCCN(C)C)C(=O)c3ccc(S(=O)(=O)N4CCc5ccccc5C4)cc3)sc2c1`, the IC50 is > 100 µM (inactive).
Same read-out and setting: the same measure for `CCOc1cccc2sc(N(CCCN(C)C)C(=O)c3ccc(S(=O)(=O)N4CCc5ccccc5C4)cc3)nc12`: > 100 µM (inactive); for `O=C(NCCCN1CCN(c2ccccc2)CC1)C1CCCN(c2ncnc3c2nc2n3CCCCC2)C1` (centres undefined): > 100 µM (inactive).
The same measure, in the same setting: for `CC1CCCCN1C(=O)C1CCN(c2ncnc3c2nc2n3CCCCC2)CC1` (centres undefined) the value was > 100 µM (inactive); for `O=C1c2cccc3cccc(c23)C(=O)N1CCN1CCN(CC(O)COc2ccc3c(c2)OCO3)CC1` (centres undefined), > 100 µM (inactive); for `O=C(CCCCCN1C(=O)c2ccccc2C1=O)NCc1ccco1`, > 100 µM (inactive).
Still for that read-out and setting: the same measure for `Cc1[nH]c2c(Cl)c(Cl)ccc2c1CCNC(=O)CCCCCN1C(=O)c2ccccc2C1=O`: > 100 µM (inactive).
The term pIC50 denotes the IC50 on a negative log10 scale, so that one unit is a factor of ten. In the case of `CC(=O)c1ccc(OCC(O)CN2CCN(CCN3C(=O)c4cccc5cccc(c45)C3=O)CC2)cc1` (centres undefined), the negative logarithm of the IC50 (pIC50) was 4.13.
With `CN(C)CCCN(C(=O)c1ccc(S(=O)(=O)N2CCc3ccccc3C2)cc1)c1nc2ccc(F)cc2s1`, the negative-log IC50 (pIC50) was 4.22.
Regarding `CN(CCNC(=O)C1CCN(c2ncnc3c2nc2n3CCCCC2)CC1)Cc1ccccc1`, the IC50 was > 100 µM (inactive).
Same read-out and setting: for `O=C(CCCn1c(=O)c2ccccc2n(Cc2cccc([N+](=O)[O-])c2)c1=O)NC1CCN(Cc2ccccc2)CC1` the value was > 100 µM (inactive); for `Cc1cc(C)c2sc(N(CCCN(C)C)C(=O)c3ccc(S(=O)(=O)N(C)C4CCCCC4)cc3)nc2c1`, > 100 µM (inactive).
On the same count and under the same terms, for `CCCOC(=O)c1ccc(NC(=O)CCCCCN2C(=O)c3ccccc3C2=O)cc1` the value was > 100 µM (inactive); for `Cc1ccc(C)c(OCC(O)CN2CCN(CCN3C(=O)c4cccc5cccc(c45)C3=O)CC2)c1` (centres undefined), > 100 µM (inactive); for `O=C(CCCCCN1C(=O)c2ccccc2C1=O)N1CCN(c2ccc([N+](=O)[O-])cc2)CC1`, > 100 µM (inactive).
On the same count and under the same terms, the same measure for `Cc1cc(NC(=O)Cn2c(=O)n(CCCCC(=O)NC3CCN(Cc4ccccc4)CC3)c(=O)c3ccccc32)n[nH]1`: > 100 µM (inactive).
With `CN(C)CCCN(C(=O)c1ccc(C(=O)c2ccccc2)cc1)c1nc2cc3c(cc2s1)OCCO3`, the negative-log IC50 (pIC50) was 4.07.
In the case of `CC(C)(C)c1ccc(OCC(O)CN2CCN(CCN3C(=O)c4cccc5cccc(c45)C3=O)CC2)cc1` (centres undefined), the IC50 was > 100 µM (inactive).
Regarding `Cc1ccc2c(c1)C1CN(C)CCC1N2C(=O)CCCN1C(=O)c2cccc3cccc(c23)C1=O` (centres undefined), the IC50 is > 100 µM (inactive).
On the same count and under the same terms, for `COc1ccc(-c2oc3ncnc(N)c3c2-c2ccccc2)cc1` the value was > 100 µM (inactive); for `CCC1CCCCN1CCCNC(=O)C1CCN(c2ncnc3c2nc2n3CCCCC2)CC1` (centres undefined), > 100 µM (inactive).
Take `CN(C)CCCN(C(=O)c1ccc2c(c1)CCCC2)c1nc2ccc(Cl)cc2s1`: the IC50 is > 100 µM (inactive).
In the case of `CN(C)CCCN(C(=O)c1ccc(S(=O)(=O)N(C)Cc2ccccc2)cc1)c1nc2cc3c(cc2s1)OCO3`, the pIC50 is 4.09.
`Cc1ccc(C)c(CN2CCC(CNC(=O)C3CCCN(c4ncnc5c4nc4n5CCCCC4)C3)CC2)c1` (centres undefined): the IC50 is > 100 µM (inactive).
With `CCOc1ccc2nc(N(CCCN(C)C)C(=O)c3ccc(C(=O)c4ccccc4)cc3)sc2c1`, the IC50 is > 100 µM (inactive).
In the case of `CCN(Cc1ccccc1)S(=O)(=O)c1ccc(C(=O)N(CCCN(C)C)c2nc3cc4c(cc3s2)OCCO4)cc1`, the pIC50 is 4.08.
For the molecule `COc1cc2nc(N(CCCN(C)C)C(=O)c3ccc(S(=O)(=O)N4CCc5ccccc5C4)cc3)sc2cc1OC`, the pIC50 was 4.16.
On to `COc1ccc2sc(N(CCCN(C)C)C(=O)c3ccc(S(=O)(=O)N4CCc5ccccc5C4)cc3)nc2c1`, for which the IC50 was > 100 µM (inactive).
Same read-out and setting: for `CN(C)CCCN(C(=O)c1ccc(S(=O)(=O)N2CCCC2)cc1)c1nc2ccc(Br)cc2s1` the value was > 100 µM (inactive).
On to `O=C(CCCn1c(=O)c2ccccc2n(Cc2ccc(Cl)cc2)c1=O)NC1CCN(Cc2ccccc2)CC1`, for which the IC50 was > 100 µM (inactive).
Still for that read-out and setting: for `CN(C)CCCN(C(=O)c1ccc(S(=O)(=O)N2CCCCCC2)cc1)c1nc2cc3c(cc2s1)OCCO3` the value was > 100 µM (inactive).
With `CN(C)CCCn1c(SCC(=O)Nc2nc(-c3cccc(Br)c3)cs2)nc2ccccc2c1=O`, the pIC50 is 4.77.
For the molecule `COc1ccc(NC(=O)CCCCCN2C(=O)c3cccc([N+](=O)[O-])c3C2=O)cc1`, the IC50 is > 100 µM (inactive).
Turning to `COC(=O)C1=C(NC(=O)CCCCCN2C(=O)c3ccccc3C2=O)SC2CCCC12` (centres undefined), the IC50 was > 100 µM (inactive).
Still for that read-out and setting: for `CCc1ccc2nc(N(CCCN(C)C)C(=O)c3ccc(S(=O)(=O)N4CCc5ccccc5C4)cc3)sc2c1` the value was > 100 µM (inactive).
For the molecule `Cc1ccccc1NC(=S)NC(=O)CCCCCN1C(=O)c2ccccc2C1=O`, the IC50 is > 100 µM (inactive).
The same measure, in the same setting: for `O=C(CCCCn1c(=O)c2ccccc2n(Cc2ccccc2)c1=O)NC1CCN(Cc2ccccc2)CC1` the value was > 100 µM (inactive); for `Cc1ccccc1CN1CCC(CNC(=O)C2CCCN(c3ncnc4c3nc3n4CCCCC3)C2)CC1` (centres undefined), > 100 µM (inactive); for `O=C1c2cccc3cccc(c23)C(=O)N1CCN1CCN(CC(O)COc2ccc(C3CCCCC3)cc2)CC1` (centres undefined), > 100 µM (inactive).
As to `O=C1c2cccc3cccc(c23)C(=O)N1CC1CCN(CC(O)COCc2ccc3c(c2)OCO3)CC1` (centres undefined), the pIC50 was 4.02.
As to `Cc1cc(C)cc(OCCNC(=O)CCCCCN2C(=O)c3ccccc3C2=O)c1`, the IC50 was > 100 µM (inactive).
Same read-out and setting: the same measure for `Cc1nc2ccccc2c(=O)n1NC(=O)c1ccc(OC(F)F)cc1`: > 100 µM (inactive).
Take `COCCOC(=O)c1ccc(NC(=O)CCCCCN2C(=O)c3ccccc3C2=O)cc1`: the IC50 was > 100 µM (inactive).
Same read-out and setting: for `O=C(NCC1CCN(Cc2ccc(F)cc2)CC1)C1CCCN(c2ncnc3c2nc2n3CCCCC2)C1` (centres undefined) the value was > 100 µM (inactive).
On the same count and under the same terms, for `O=C(C1CCN(c2ncnc3c2nc2n3CCCCC2)CC1)N1CCOCC1` the value was > 100 µM (inactive); for `CC1CN(S(=O)(=O)c2ccc(NC(=O)CCCCCN3C(=O)c4ccccc4C3=O)cc2)CC(C)O1` (centres undefined), > 100 µM (inactive); for `O=C1c2cccc3cccc(c23)C(=O)N1CCN1CCN(CC(O)COc2ccccc2)CC1` (centres undefined), > 100 µM (inactive).
Same read-out and setting: for `O=C(NCC1CCN(Cc2cccc(Cl)c2)CC1)C1CCCN(c2ncnc3c2nc2n3CCCCC2)C1` (centres undefined) the value was > 100 µM (inactive); for `COc1cccc(OCC(O)CN2CCN(CCN3C(=O)c4cccc5cccc(c45)C3=O)CC2)c1` (centres undefined), > 100 µM (inactive).
On to `CCCCOC(=O)c1cccc(NC(=O)CCCCCN2C(=O)c3ccccc3C2=O)c1`, for which the IC50 was > 100 µM (inactive).
Take `O=C(NCC1CCN(Cc2ccccc2F)CC1)C1CCCN(c2ncnc3c2nc2n3CCCCC2)C1` (centres undefined): the IC50 was > 100 µM (inactive).
On the same count and under the same terms, the same measure for `CC(NC(=O)CCCCCN1C(=O)c2cccc([N+](=O)[O-])c2C1=O)c1ccccc1` (centres undefined): > 100 µM (inactive); for `O=C(CCCCn1c(=O)c2ccccc2n(Cc2ccccc2F)c1=O)NC1CCN(Cc2ccccc2)CC1`: > 100 µM (inactive).
On the same count and under the same terms, for `O=C(NCCCN1CCN(c2ccc(F)cc2)CC1)C1CCCN(c2ncnc3c2nc2n3CCCCC2)C1` (centres undefined) the value was > 100 µM (inactive).
With `O=C1c2cccc3cccc(c23)C(=O)N1CC1CCN(CC(O)COc2ccc3ccccc3c2)CC1` (centres undefined), the pIC50 was 4.16.
Regarding `O=C(CCCCCN1C(=O)c2ccccc2C1=O)NCc1ccccc1`, the IC50 was > 100 µM (inactive).
The same measure, in the same setting: for `CC1CC(C)CN(C(=O)C2CCN(c3ncnc4c3nc3n4CCCCC3)CC2)C1` (centres undefined) the value was > 100 µM (inactive); for `CN(C)CCCN(C(=O)c1ccc(S(=O)(=O)N2CCCCCC2)cc1)c1nc2ccc(Br)cc2s1`, > 100 µM (inactive).
In the case of `COC(=O)c1ccc(OCC(O)CN2CCN(CCN3C(=O)c4cccc5cccc(c45)C3=O)CC2)cc1` (centres undefined), the pIC50 is 4.24.
The same measure, in the same setting: for `CCN(Cc1ccccc1)S(=O)(=O)c1ccc(C(=O)N(CCCN(C)C)c2nc3cc4c(cc3s2)OCO4)cc1` the value was 4.24.
`COc1cccc(NC(=O)CCCCCN2C(=O)c3cccc([N+](=O)[O-])c3C2=O)c1`: the IC50 is > 100 µM (inactive).
Regarding `COc1ccc(CCNC(=O)CCCCCN2C(=O)c3ccccc3C2=O)cc1OC`, the IC50 is > 100 µM (inactive).
Still for that read-out and setting: for `Cc1cc(OCC(O)CN2CCN(CCN3C(=O)c4cccc5cccc(c45)C3=O)CC2)ccc1C(C)C` (centres undefined) the value was > 100 µM (inactive); for `CNCc1cc(Br)c(OCC(=O)Nc2ccccc2OC)c(OC)c1`, > 100 µM (inactive).
The same measure, in the same setting: for `CC(=O)Nc1ccc(OCC(O)CN2CCN(CCN3C(=O)c4cccc5cccc(c45)C3=O)CC2)cc1` (centres undefined) the value was > 100 µM (inactive).
